This note sets out measurements from patent US9617311B2, “Use of PEDF-derived polypeptides for promoting stem cells proliferation and wound healing” (Mackay Memorial Hospital, priority 2011, dated 2017).

Assay [1] relates to basal cells of the hyper-proliferative epithelium. The assay can be described thus: Cell replication at basal layer of HE tissue at day 4 post skin wounding, BrdU immunohistochemistry. To be noted: day 4 of skin ointment treatment; BrdU i.p. 3 hours before euthanasia; control wound 30.8±8.1%. Type of assay: in vivo, C57L/B6 mice. The text has this:
FIGS. 9A and 9B illustrate histological analysis of cell replication at day 4 post-skin wounding. FIG. 9A provides photographs in which specimens were immunehistologically stained with BrdU to observe DNA replication (deep brown color) and counterstained with hematoxylin to observe nuclei. […] (Original magnification, ×200). FIG. 9B is a histogram illustrating numbers of BrdU-positive cells at basal layer of HE tissue. A labeling index (%) was computed as the number of labeled cells divided by the total number of cells at basal layer of HE tissue. *P<0.05 versus control wound.
2×10^5 limbal cells (the 1st passage) were seeded at a slide coated with FNC COATING MIX® solution (Athena Enzyme Systems, Baltimore, Md.) and incubated with a culture medium for one day. BrdU (final, 10 μM) was added to the culture for 2 hours. After being fixed with 4% paraformaldehyde, cells were exposed to cold methanol for 2 minutes, and then treated with 1 N HCl at RT for 1 hour before performing immunofluorescence. For animal study, BrdU was reconstituted in DMSO as stock (80 mM). 10 μl of BrdU mixed with 90 μl of PBS was intraperitoneally injected into mouse 3 hours prior to euthanasia. DNA synthesis was assessed by BrdU labeling with anti-BrdU antibodies.
(§1) To perform full-thickness skin excision, 8- to 10-week-old C57L/B6 mice were respectively anesthetized by an intraperitoneal injection of a mixture of zoletil (6 mg/kg) and xylazine (3 mg/kg). Two full-thickness skin excisional wounds, 4 mm in diameter were made on either side of the dorsal midline using Sklar Tru-Punch disposable biopsy punch (Sklar, West Chester, Pa., USA). In each treatment group (n=6), the skin wound was treated with 25 μl skin ointment (containing 50 μM synthetic peptide and 0.006 μl DMSO vehicle) once daily after the skin scraping. In the control group (n=6), skin wound was treated with 25 μl of skin ointment with equal concentration of DMSO. Each gram of the above skin ointment contains 5 mg neomycin sulfate and 12.5 mg Bacitracin Zinc. Wounds were left uncovered and harvested 4 and 7 days after injury. Mice were housed individually during the healing period.
To investigate whether skin resurfacing process, which involves cell replication, is accelerated by 29-mer, Mo 29-mer, 20-mer, or Mo 20-mer, wounds were treated with skin ointment containing 29-mer, Mo 29-mer, 20-mer, or Mo 20-mer for 4 days, and then mice were intraperitoneally injected with BrdU for further 3 hours before euthanized. […] This observation was consistent with the thicker HE tissue treated with 29-mer or 20-mer.

Assay [2] has as its system full-thickness skin excisional wounds. The assay can be described thus: Skin wound healing in mice, histology with Masson's trichrome. To be noted: for residual epithelial defects, Masson's trichrome sections: day 7 after trauma, control ointment 43.5±6.5%; for area of GT (granulation tissue), folds over the control group / area of HE tissue, folds over that of the control group / residual epithelial defect, Masson's trichrome sections: day 4 after trauma; for area of GT (granulation tissue), folds over the control group / area of HE tissue, folds over that of the control group: edge of the wound; for residual epithelial defect, Masson's trichrome sections: sections of the middle of the wounds, control 63.8±5.8%. Type of assay: in vivo, C57L/B6 mice.
Text: FIGS. 7A to 7E provide quantification of wound healing at day 4. […] Arrowheads (▾) and arrows (↓) denote initial wound margins and the foremost tips of the hyperproliferative epithelium (HE; red color), respectively. Data are representative of 10-16 wounds (2 wounds per mouse) in each group. *P<0.02 versus control wound. FIG. 7B is a histogram illustrating the residual epithelial defect (%) in mice from each treatment group; only sections of the middle of the wounds were used for quantification. Data are shown as mean±SE. FIG. 7C provides representative photographs of wound edge. GT: granulation tissue (blue color); Es: eschar (deep-red). […] FIGS. 7D and 7E are histograms providing quantifications of the areas of HE and GT using Adobe Photoshop CS3 10.0. *P<0.02 versus control wound.
FIGS. 8A and 8B provide quantification of wound healing at day 7. […] Arrowheads (▾) and arrows (↓) denote initial wound margins and the foremost tips of the hyperproliferative epithelium, respectively. FIG. 8B is a histogram illustrating the residual epithelial defect (%) in mice from each treatment group; only sections of the middle of the wounds were used for quantification. Data are shown as mean±SE. *P<0.05 versus control wound.
as §1
For histological analysis the complete wounds including 2 mm of the epithelial margins was isolated, bisected, fixed overnight in 4% PFA in PBS, and embedded in paraffin. Sections (5 μm) from the middle of the wound were stained using the Masson's trichrome procedure as described by the manufacturer, in which the epithelium was stained red and connective tissue was stained blue. Photographs were taken using a Leica DC 500 camera (Leica Microsystems).
To further confirm the efficacy of 29-mer and 20-mer on skin wound repair, skin sections from day 4 after trauma were stained using the Masson's trichrome. […] The residual epithelial defect of 29-mer and 20-mer-treated groups were 52.7±6.2% and 49.7±5.6%, respectively; as compared to control animals of 63.8±5.8% (FIG. 7B). In addition, 29-mer treatment elevated the thicknesses of hyper-proliferative epithelial (HE) tissue and granulation tissue (GT) around the edge of the wound (FIG. 7C).
Masson's trichrome was used to stain skin sections obtained from day 7 after trauma for the measurement of the wound closure.

As to “SLGAEHRTESVIHRALYYDL [Mo 20-mer, synthetic peptide derived from mouse PEDF]”, the “BrdU-positive cells at basal layer of HE tissue, labeling index” value (from here on “BrdU-positive cells … labeling index”) in assay [1] was determined as 49.2±4.3%.

As for “SLGAEHRTESVIHRALYYDLITNPDIHST [Mo 29-mer, synthetic peptide derived from mouse PEDF]”, the “residual epithelial defects, Masson's trichrome sections” value (shortened to “residual epithelial defects”) in assay [2] is recorded as 17.2±7.3%. In assay [1], the “BrdU-positive cells … labeling index” value was determined as 52.5±2.5%.

“SLGAEQRTESIIHRALYYDL [20-mer, synthetic peptide identical to residues 11-30 of the 39-mer]”: in assay [2], the “area of GT (granulation tissue), folds over the control group” value is on record as 1.37±0.17 folds; the “area of HE tissue, folds over that of the control group” value was 1.32±0.21 folds; the “residual epithelial defect, Masson's trichrome sections” value is listed as 49.7±5.6%; the “residual epithelial defects” value is 20.8±6.1%. Besides, the “BrdU-positive cells … labeling index” value in assay [1] came to 53.1±6.5%.

For “SLGAEQRTESIIHRALYYDLISSPDIHGT [29-mer, short synthetic PEDF peptide derived from the 39-mer]”, in assay [2], the “area of GT (granulation tissue), folds over the control group” value was 1.45±0.23 folds; the “area of HE tissue, folds over that of the control group” value was 1.41±0.25 folds; the “residual epithelial defect, Masson's trichrome sections” value stood at 52.7±6.2%; the “residual epithelial defects” value came out at 17.9±3.3%. Also, in assay [1], the “BrdU-positive cells … labeling index” value came out at 47.9±5.0%.
